Laboratory results taken from patent US20110195924A1, “Methods of Inhibiting the Interaction Between S100P and the Receptor for Advanced Glycation End-Products” (priority 2008, published 2011).
Entries after “also recorded” stand apart in the source; their conditions may differ.

Tests used:
S100P binding with RAGE = biological target: T1, S100P binding with RAGE (Homo sapiens, UniProt P25815); assay: ELISA of S100P binding to RAGE (sRAGE coated plate)
T1 construct: full-length human S100P cDNA (NM_005980) was cloned into the pTrcHis2 vector; His; made in house; host or cells: bacteria (S100P)
T1 sequence (P25815 1-95): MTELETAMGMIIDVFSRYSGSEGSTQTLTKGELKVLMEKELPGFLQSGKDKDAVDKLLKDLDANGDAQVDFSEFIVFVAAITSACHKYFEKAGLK
Experimental: After removing un-bound S100P by washing with detergent, the bound S100P and RAGE complex was quantified by adding HRP labeled antibody against S100P. *, P=0.04 C5 1 μM versus cromolyn 5 μM. Two-tailed two-sample (unpaired) Student's t-tests were used to determine P values.
The plate was washed and the amount of bound S100P was quantitated using anti-S100P antibody.
The binding of S100P to RAGE was determined using an ELISA assay. sRAGE was attached to the dish and recombinant S100P (50 ng) was added with or without the indicated concentrations of cromolyn analogs. The plate was washed and the amount of bound S100P was quantitated using anti-S100P antibody.

MPan-96 cells = assay: MPanc-96 cell invasiveness; type: cell-based, Human
SKOV3 ovarian cells = assay: SKOV3 ovarian cell proliferation; type: cell-based; details: different concentrations; 24, 48, 72 hours
Experimental: SKOV3 ovarian cells were cultured for up to three days in the presence of different concentrations of cromolyn, and cell proliferation was analyzed at 24, 48, and 72 hours. *, P<0.05.

S100B with RAGE = biological target: T2, S100B with RAGE (Homo sapiens, UniProt P04271); assay: ELISA of S100B binding to RAGE (sRAGE coated plate)
T2 sequence (P04271 1-92): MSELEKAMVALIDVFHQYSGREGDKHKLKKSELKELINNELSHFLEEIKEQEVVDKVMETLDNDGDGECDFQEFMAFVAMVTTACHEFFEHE
Excerpt: After removing un-bound S100B by washing with detergent, bound S100B and RAGE complex was quantified by adding HRP labeled antibody against S100B.

BxPC-3 cells = assay: BxPC-3 matrigel invasion assay; type: cell-based; details: 24 hours; for cells invaded, mean: 0 μM 19.3%
Experimental: FIGS. 2A-2D show the effect of cromolyn on pancreatic cancer cell invasion. Panc-1 and BxPC-3 cells were plated in Bio-coat matrigel and control chambers and cultured in serum-free culture media. After 24 hours non-invaded cells in the upper chamber were removed, and cells that invaded onto the lower surface of the membrane were counted from five adjacent fields. […] Data are expressed as the percent invasion through the matrigel matrix and membrane relative to migration through the control membrane. Means and 95% confidence intervals from three independent experiments performed in triplicate are shown. Two-tailed two-sample (unpaired) Student's t-tests were used to determine P values. Panc-1 and BxPC-3 cells were seeded in BIOCOAT matrigel invasion chambers and in control chambers without matrigel (Becton-Dickinson, Bedford, Mass.) according to the manufacturer's protocol. Panc-1 cells were seeded with S100P (100 nM) with or without cromolyn (100 μM), and BxPC-3 cells were seeded with or without cromolyn (1-100 μM). Briefly, 2.0×10^5 cells in 300 μL top solution (serum-free media) were added to each chamber and allowed to invade matrigel for 24 hours at 37° C. in a 5% CO2 atmosphere. The non-invading cells on the upper surface of membrane were removed from the chambers with a cotton swab, and the invading cells on the lower surface of the membrane were fixed and stained using a Diff-Quick stain kit (Becton Dickinson, Bedford, Mass.). After two washes with water, the chambers were allowed to air dry. The numbers of invading cells in five adjacent microscope fields per membrane were counted at 20× magnification to obtain the average number of cells per field. Data are expressed as the percent invasion through the matrigel matrix and membrane relative to the migration through the control membrane. The assays were performed three times.

NFκB promoter activity = assay: NFκB luciferase activity in vivo, orthotopic BxPC-3 tumors; design: species or system mice
Experimental: FIGS. 3A, 3B, and 3C show the effect of cromolyn on S100P stimulated NFκB promoter activity in pancreatic cancer cells in vitro and in vivo. Panc-1 and BxPC-3 pancreatic cancer cell lines stably expressing an NFκB luciferase reporter were examined for the effects of S100P and cromolyn. […] Means and 95% confidence intervals are shown for three independent experiments performed in triplicate. *, P=0.022, †, P<0.001, and P<0.001 versus control; #, P=0.005 versus 100 nM S100P alone. […] Means and 95% confidence intervals are shown for three independent experiments performed in triplicate. *, P=0.003, †, P<0.001 versus control. […] After 1 week, tumor growth was assessed and NFκB activity was analyzed using an IVIS system (Xenogen Corp., Alameda, Calif.) after injecting mice with D-luciferin (150 mg per kg body weight) (0 time point). The mice were treated with cromolyn (5 mg per kg body weight by intraperitoneal injection), and NFκB luciferase activity was analyzed again at 24 and 48 hours. *, P=0.005 versus control. Means and 95% confidence intervals are shown for two independent experiments (n=4 mice per group). Two-tailed two-sample (unpaired for in vitro and paired for in vivo studies) Student's t-tests were used to determine P values. To measure NFκB promoter activity in vivo, BxPC-3 cells (50,000/50 μL) stably expressing a Lenti-NFkB-luc reporter were transplanted orthotopically into the pancreas of 4-week-old male CB17 scid mice (n=4 mice per experiment). After 1 week mice were injected with D-luciferin (150 mg per kg body weight, i.p.), and basal NFκB activity was determined using the IVIS system. Subsequently, mice were injected with cromolyn (5 mg per kg body weight, i.p.), and NFκB luciferase activity was re-analyzed after 24 and 48 hours. These experiments were performed three times. To determine whether cromolyn treatment could also reduce NFκB activity in vivo, NFκB activity of BxPC-3 cells stably expressing an NFκB luciferase reporter construct that had been transplanted orthotopically into the pancreas of […] (n=4) was examined. After 1 week, NFκB luciferase activity was determined before (0 time point) and at 24 and 48 hours after a single dose of cromolyn (5 mg per kg body weight by intraperitoneal [i.p.] injection). Cromolyn administration reduced basal NFκB activity by at least 80% 24 hours after injection (0 h, mean=9.9×10^6 versus 24 h, mean=1.3×10^6 photons/sec, difference=8.6×10^6 photons/sec, 95% CI=3.1×10^6 to 1.4×10^7 photons/sec; P=0.005, FIG. 3C).

- blocking of the interaction / binding of S100P with RAGE (S100P binding with RAGE): blocked; also recorded: able to block
- concentration achieving the same level of S100P inhibition (S100P binding with RAGE; FIG. 7): 5 µM
- interaction of S100B with RAGE (S100B with RAGE): inhibit
SMILES: O=C(O)c1cc(=O)c2c(OCC(O)COc3cccc4oc(C(=O)O)cc(=O)c34)cccc2o1 [cromolyn, disodium 1,3-bis[(2′-carboxylatochromon-5′-yl)oxy]-2-hydroxypropane]
- basal cell invasiveness (MPan-96 cells): inhibited
- growth of SKOV3 cells (SKOV3 ovarian cells): reduced the growth
- cells invaded, difference versus 0 μM (BxPC-3 cells; cromolyn 10 μM): 10.0%
- cells invaded, mean (BxPC-3 cells; cromolyn 10 μM): 9.3%
- cells invaded, difference versus 0 μM (BxPC-3 cells; cromolyn 100 μM): 11.7%
- cells invaded, mean (BxPC-3 cells; cromolyn 100 μM): 7.7%
- NFκB luciferase activity, difference 0 h versus 24 h (NFκB promoter activity; cromolyn 5 mg per kg i.p., 24 h): 8.6×10^6 photons/sec
- NFκB luciferase activity, mean (NFκB promoter activity; cromolyn 5 mg per kg i.p., 24 h, 0 h mean 9.9×10^6): 1.3×10^6 photons/sec
- NFκB activity (NFκB promoter activity; cromolyn 5 mg per kg i.p., 48 hours after injection): returned to control levels
- reduction of basal NFκB activity (NFκB promoter activity; single dose cromolyn 5 mg per kg i.p., 24 hours after injection): at least 80%
